According to the NIST ThermoML archive (doi:10.1021/je050488p):
± gives the expanded uncertainty stated by the source.

Conditions: Crystal; visual observation

Structure (SMILES): O=P1(CO)Oc2ccccc2-c2ccccc21 (stereo unspecified) [6-(hydroxymethyl)dibenzo[c,e][1,2]oxaphosphinine 6-oxide]
- Normal melting temperature: 158.50 ± 1.5 °C
